Broadly, the EC50 is the concentration that produces a half-maximal response. One may read the CC50 as the concentration that lowers cell viability or growth by half.

For one data set, the target named is T1, HCV NS4B (Hepatitis C virus genotype 1b, UniProt Q9WMX2).
T1 construct: NS4B was cloned, expressed and purified to establish an assay; made in house
In words: NS4B binding assay (quenching of intrinsic protein fluorescence). The settings on record: fluorescent binding assay. The text has this: NS4B was cloned, expressed and purified to establish an assay, which takes advantage of the intrinsic fluorescent properties of proteins and identifies compounds, which inhibit by a NS4B specific mechanism. This protein is necessary for viral replication. It is thought to act as an anchor securing the replication complex to cellular membranes, where replication is known to occur. Several other functions necessary for viral replication have also ascribed to NS4B.

In data set [1] the test system is HCV replicon (BB7 sequence) in Huh-7-Clone A cells. In words: HCV replicon NS5A ELISA, inhibition of viral RNA replication. In kind it is cell-based, hepatitis C virus. The settings on record: for activity against HCV-replicon: measured by Elisa and quantitative RT-PCR, Clone-A cells. As to the method:
Antiviral activity of representative compounds of the invention was evaluated in a human liver-derived cell line (Huh-7-Clone A) containing the HCV replicon (BB7 sequence) (See Lohmann et al. Science. 1999, 285:110-3; Blight K J et al., Science. 2000, 290:1972-4; Pietschmann, T. et al., J. Virol. 2001, 73:1252-1264; and Lohmann, V. et al., J. Virol. 2001, 75:1437-1449). The HCV replicon is a subgenomic viral RNA that expresses the HCV proteins required for its own replication. These proteins include non-structural proteins NS3, NS4A, NS4B, NS5A and NS5B. The replicon also contains a foreign gene encoding a drug-selectable marker (neomycin phosphotransferase) to allow for G418 (neomycin) selection of cells that contain the replicon.
An ELISA (enzyme-linked immunosorbant assay) was used to determine the effect of compounds within the scope of the invention on the amount of HCV NS5A protein produced after a 72-hour incubation of the replicon-containing cells in the presence of varying concentrations of compound. Huh7-Clone A cells were seeded in 96-well plates at a subconfluent density (9000 cells/well) in medium containing 2% FBS and incubated for 4 hours to allow attachment to occur. HCV-086 (solubilized with 100% dimethylsulfoxide [DMSO]) was added to wells using an 8-point, 3-fold serial dilution series, with a final DMSO concentration of 1% in a total volume of 200 μL. Plates were incubated for 72 hours at 37° C. and 5% CO2. Under these conditions, the cells are approximately 25% confluent at the time of seeding and 80-90% confluent on day 3. COSTAR® 96-well cell culture plates were used but other known cell culture plates may be used. After incubation, media is removed from wells and the cells are fixed to the assay plate using 0.05% glutaraldehyde (Fisher # 02957-4). The glutaraldehyde is then washed off using phosphate-buffered saline (PBS) following a 1 hour incubation and cells are blocked for non-specific antibody binding using for example SUPERBLOCK® reagent (blocking buffer) in PBS. The blocking agent is rinsed from the cells with PBS after 1 hour at 37° C., and HCV NS5A monoclonal antibody (Virostat # 1873) is added to each well containing compound. Primary antibody is incubated for 1 hour at 37° C. and rinsed 3 times with PBS containing 0.02% TWEEN-20™ before addition of Horseradish Peroxidase (HRP) conjugated secondary antibody. HRP is incubated for 1 hour at 37° C. and rinsed several times, first with PBS/TWEEN-20™ followed by PBS alone. To quantify peroxidase activity, 3,3′,5,5′-tetramethylbenzidine (TMB) substrate is added to the plate and after 30 minutes, the plates are read in an ELISA plate reader at an OD of 650 nm.
Compound dose response was measured in an 8-point dose curve diluted serially to determine the inhibitory concentration at 50% (EC50 value). […] Ranges of 50% effective concentrations (EC50s) for the representative compounds within the scope of this invention are listed in Tables 1-8. Preferred compounds have 50% effective concentrations at about 30 μM or less, more preferred compounds have 50% effective concentrations at about 5 μM or less, and most preferred compounds have 50% effective concentrations at about 0.5 μM or less.
(A replicon is a self-replicating genome or part of one, used to study replication in cells.)

The test system of data set [2] is Clone-A cells. In words: Genomic DNA fragmentation by agarose gel electrophoresis. The class given is cell-based, human. The note with it: Huh7, Clone-A and 559^R treated. On the procedure: DNA fragmentation is a measure of apoptotic cell death. Huh7, Clone-A and 559^R were treated with Compound B and genomic DNA fragmentation determined by agarose gel electrophoresis.

For data set [3], the system named is Clone-A cells. In words: Crystal violet qualitative cell proliferation assay, 5 day incubation, Clone-A. The class given is cell-based, human. The note with it: crystal violet staining. On the procedure: (§1) The cellular toxicity of Compound A at different concentrations was assessed on different cell lines following crystal violet staining (qualitative cell proliferation assay) after 5 day incubation. Huh7 cells are human hepatoma cells. A genotype 1b replicon-containing cell line derived from Huh7 cells (Clone-A) was obtained from Apath, LLC. Clone-A cells were selected under Compound B drug pressure and a resistant clone was selected (559^R) which contained mutations in NS4B gene.

The subject of a further data set is Huh-7 cells. The class given is cell-based. The note with it: human, 5 day. As to the method:
as §1

For a further data set, the system named is 559^R cells. In words: Crystal violet qualitative cell proliferation assay, 5 day incubation, resistant clone. In kind it is cell-based, human. The note with it: crystal violet staining. As to the method: as §1
Data set [4] can be described thus: Crystal Violet cellular toxicity in wild type replicon cells. In kind it is cell-based. The settings on record: human. On the procedure:
(§2) Huh-7 cells (harboring no replicon) and wild type replicon cells were seeded onto a 96 well plate. All cells were subjected to increasing amounts of a representative compound of the invention, as described in the replicon ELISA protocol. In order to assess the cellular toxicity of a compound of Formula I in both Huh-7 cells (harboring no replicon) and wild type replicon, cells were stained with Crystal Violet (a nonspecific protein stain) after 72 hours. The […] values for cells lacking replicon were generally >100.0 μM in parental Huh-7 cells for each compound. […] In this case the cells' natural defenses are strengthened and apoptosis, a natural defense to viral infection, occurs. The Huh-7 cell line is the parental cell line harboring no HCV subgenomic replicon. In this cell line, the toxicity is reduced due to the fact that there is no NS4B for the compound to bind. If the cellular toxicity in cells comprising HCV replicons and in the parental Huh-7 cell line (no replicon) are the same, then they are effective in inhibiting HCV replication rather than the modulation of apoptosis.
(§3) During drug screening efforts to identify compounds having binding affinity for HCV NS4B, the triazinoindole class of compounds of Formula VII was identified. […] However a cellular toxicity (CC50) of 20 μM was also found. […]

Data set [5] is described as follows: Crystal Violet cellular toxicity in parental cells harboring no replicon. In kind it is cell-based. The settings on record: human, parental Huh-7 cells (harboring no replicon), 72-hour period, parental Huh-7 cells lacking replicon. As to the method: as §2, §3
Data set [6] relates to genotype 1b (BB7 isolate) replicon-containing cells. In words: Selection of replicon variants under test compound. The note with it: cell line passaged in the presence of 5 μM test compound for 7 passages. In kind it is cell-based, hepatitis C virus. As to the method:
To select for replicon variants, genotype 1b (BB7 isolate) replicon-containing cells were cultured and in the presence of 5 μM of the test compound for 7 passages. As a control, genotype 1b (BB7 isolate) replicon-containing cells were passaged in parallel, without the test compound. […] Total cellular RNA was extracted from both cell lines using Trizol Reagent (Invitrogen #15596-026) according to the manufacturer's protocol. NS5B cDNA was generated in a two-step RT-PCR reaction. PCR products were ligated into pPCR-Script Amp SK (+) (Stratagene #211188), transformed into E. coli, and sequenced.
The changes are as follows: K52R, G120V and A210S.

Structures are written as SMILES. Some results are limits rather than exact numbers.

Turning to `CCCCc1c(C)nn(-c2nnc3c4ccccc4n(CC)c3n2)c1C` [Compound B, 2-(4-butyl-3,5-dimethyl-pyrazol-1-yl)-9-ethyl-9H-1,3,4,9-tetraaza-fluorene], the “binding activity towards purified HCV NS4B” value at HCV NS4B is listed as “demonstrated binding activity”. In addition, the “activity against HCV-replicon” value in data set [1] was “demonstrated activity”. In addition, the “genomic DNA fragmentation (apoptose)” value in the data set with Clone-A cells [2] was “cause DNA fragmentation (apoptose) in Clone-A cells only”.

Regarding `Cc1nn(-c2nnc3c4ccccc4n(C)c3n2)c(C)c1-c1ccccc1` [Compound A, 2-(3,5-dimethyl-4-phenyl-pyrazol-1-yl)-9-methyl-9H-1,3,4,9-tetraaza-fluorene], on HCV NS4B, the “binding activity towards purified HCV NS4B” value is “demonstrated binding activity”. In [1], the “activity against HCV-replicon” value is given as “demonstrated activity”. Also, the figures for the cellular toxicity in the data set with Clone-A cells [3], in the data set on Huh-7 cells and in the data set with 559^R cells were roughly 3 µM, roughly 30 µM and roughly 30 µM, respectively.

For `CCCCc1c(C)nn(-c2nnc3c4ccccc4n(CC)c3n2)c1C` [Example 1], in [1] (Hepatitis C virus, measured using the HCV subgenomic replicon system, read-out: EC50), the EC50 was 1200 nM. Also, the half-maximal cytotoxic concentration (CC50) in data set [4] (HCV subgenomic replicon cells, found alongside EC50 in the HCV subgenomic replicon system) was 20 µM. Further, the CC50 at 72 h in data set [4] (Crystal Violet, 72-hour period, cells containing wild type replicons) was 20 µM; in data set [5] it was greater than 100 µM. In addition, in [6], the “reduced susceptibility to the compound” value is listed as “over 10 fold”.

Source of the values: patent US20070269420A1, “Compounds, Compositions and Methods for Treatment and Prophylaxis of Hepatitis C Viral Infections and Associated Diseases” (priority 2003, published 2007).
